# According to paper PMC9166766 (Experimental & Molecular Medicine, 2022):
# No end group written: not given here.
# Test system: Jurkat T cells (PMA and ionomycin-induced gene expression)
# Assay: mRNA sequencing of activated Jurkat T cells
# Type: cell-based, human
# Experimental: We then extracted RNA from these cells. Construction of the cDNA library and next-generation sequencing was performed at LAS (Gimpo, Korea). We sequenced all samples on an Illumina NextSeq 500 system with 75 paired-end reads. For the RNA sequencing analysis, reads for each sample were aligned to the human genome (GRCh37/hg19 genome assembly) using STAR 2.4.0.1[25] with default settings. We used HOMER tools to quantify and normalize the defined genes in RefSeq transcripts. FPKM normalized genes were hierarchically clustered using Cluster3.0[26]. We visualized refined data with Java Treeview (http://jtreeview.sourceforge.net). We conducted gene ontology analysis of each cluster using the DAVID web tool (https://david.ncifcrf.gov). Finally, we visualized the expression levels of target genes using the Integrative Genomics Viewer (http://software.broadinstitute.org/software/igv). The raw data were submitted to the NCBI Gene Expression Omnibus under accession number GSE185561.
# Fig. 3 The CABIN1 peptide inhibits T-cell activation. a Heatmap of altered genes affected by FK506 treatment or CABIN1 peptide expression upon T-cell activation. b Gene Ontology analysis of cluster III. c mRNA expression levels of genes included in cluster III. d qRT-PCR data of genes in c. The experiment was independently repeated at least three times, and the data are presented as the mean ± standard deviation. Statistical differences were determined using two-tailed Student’s t-test. *p < 0.05, **p < 0.01, ***p < 0.001, NC negative control.
substance,measurement,setting,value
"CABIN1-L-1-2: 10 amino acids from proline 2146 to proline 2155 of full-length CABIN1; expressed GST-, GAL4 DBD- or HA-mCherry-tagged (PEITVTPPTP; also: expressed GST-, GAL4 DBD- or HA-mCherry-tagged, end not given here)",CD27 and CD70 expression,"Jurkat, PMA and ionomycin 8 h",repressed
same,"RNA levels of T-cell activation markers (IL2, IL3, NFATC1, CCL4, CCL20, CXCL8)","Jurkat, PMA and ionomycin 8 h",reduced the RNA levels
same,TM4SF1 expression,"P+I 8 h, NC 0, NC_P+I 3.268",0.907 FPKM
same,CD200 expression,"P+I 8 h, NC 0, NC_P+I 3.759",0.094 FPKM
same,ZP4 expression,"P+I 8 h, NC 0, NC_P+I 6.38",5.182 FPKM
same,CCL3L1 expression,"P+I 8 h, NC 0, NC_P+I 6.448",0.079 FPKM
same,CCL3L3 expression,"P+I 8 h, NC 0, NC_P+I 6.524",0.079 FPKM
same,CCL1 expression,"P+I 8 h, NC 0, NC_P+I 9.86",0.415 FPKM
same,NR4A2 expression,"P+I 8 h, NC 0, NC_P+I 10.173",0.356 FPKM
same,CCL4L2 expression,"P+I 8 h, NC 0, NC_P+I 12.758",0.328 FPKM
same,CCL4L1 expression,"P+I 8 h, NC 0, NC_P+I 13.27",0.328 FPKM
same,CSF2 expression,"P+I 8 h, NC 0, NC_P+I 23.497",0.314 FPKM
same,XCL1 expression,"P+I 8 h, NC 0, NC_P+I 49.113",1.144 FPKM
same,CCL3 expression,"P+I 8 h, NC 0, NC_P+I 52.239",0.502 FPKM
same,CCL20 expression,"P+I 8 h, NC 0, NC_P+I 59.393",1.279 FPKM
same,IL3 expression,"P+I 8 h, NC 0, NC_P+I 229.054",6.298 FPKM
same,CCL4 expression,"P+I 8 h, NC 0, NC_P+I 247.287",4.062 FPKM
same,IL2 expression,"P+I 8 h, NC 0, NC_P+I 397.807",12.964 FPKM
same,C3 expression,"P+I 8 h, NC 0.006, NC_P+I 3.907",1.329 FPKM
same,TNS3 expression,"P+I 8 h, NC 0.008, NC_P+I 13.196",1.418 FPKM
same,PLS3 expression,"P+I 8 h, NC 0.019, NC_P+I 4.717",0.37 FPKM
same,CREB5 expression,"P+I 8 h, NC 0.031, NC_P+I 4.533",1.966 FPKM
same,IRF4 expression,"P+I 8 h, NC 0.034, NC_P+I 8.439",2.092 FPKM
same,CXCL8 expression,"P+I 8 h, NC 0.037, NC_P+I 26.755",3.327 FPKM
same,SLAMF1 expression,"P+I 8 h, NC 0.042, NC_P+I 5.663",0.275 FPKM
same,TNFSF14 expression,"P+I 8 h, NC 0.045, NC_P+I 69.958",4.255 FPKM
same,IL21R-AS1 expression,"P+I 8 h, NC 0.048, NC_P+I 23.616",3.991 FPKM
same,XCL2 expression,"P+I 8 h, NC 0.056, NC_P+I 70.747",2.074 FPKM
same,LIF expression,"P+I 8 h, NC 0.063, NC_P+I 3.697",0.231 FPKM
same,SHC4 expression,"P+I 8 h, NC 0.069, NC_P+I 4.391",0.686 FPKM
same,RGS16 expression,"P+I 8 h, NC 0.077, NC_P+I 29.102",5.595 FPKM
same,IL21R expression,"P+I 8 h, NC 0.1, NC_P+I 34.712",5.255 FPKM
same,CRTAM expression,"P+I 8 h, NC 0.104, NC_P+I 100.175",9.51 FPKM
same,ZNF704 expression,"P+I 8 h, NC 0.107, NC_P+I 4.985",0.183 FPKM
same,NTRK1 expression,"P+I 8 h, NC 0.167, NC_P+I 7.941",1.657 FPKM
same,PHEX expression,"P+I 8 h, NC 0.188, NC_P+I 17.377",0.786 FPKM
same,SORBS1 expression,"P+I 8 h, NC 0.196, NC_P+I 5.08",0.511 FPKM
same,TIAM2 expression,"P+I 8 h, NC 0.255, NC_P+I 4.095",0.301 FPKM
same,CRIM1 expression,"P+I 8 h, NC 0.268, NC_P+I 3.029",0.333 FPKM
same,SERPINB2 expression,"P+I 8 h, NC 0.28, NC_P+I 85.882",14.103 FPKM
same,CCND2 expression,"P+I 8 h, NC 0.321, NC_P+I 6.436",0.99 FPKM
same,CXCR3 expression,"P+I 8 h, NC 0.604, NC_P+I 14.322",1.803 FPKM
same,ISM1 expression,"P+I 8 h, NC 0.798, NC_P+I 56.893",3.737 FPKM
same,C10orf54 expression,"P+I 8 h, NC 0.84, NC_P+I 7.506",0.487 FPKM
same,CSF1 expression,"P+I 8 h, NC 0.848, NC_P+I 13.43",2.594 FPKM
same,SLC35E4 expression,"P+I 8 h, NC 0.887, NC_P+I 9.069",1.517 FPKM
same,ZNF827 expression,"P+I 8 h, NC 0.975, NC_P+I 3.401",1.372 FPKM
same,CD70 expression,"P+I 8 h, NC 1.101, NC_P+I 61.146",7.606 FPKM
same,PAM expression,"P+I 8 h, NC 1.154, NC_P+I 5.577",1.934 FPKM
same,FOXO1 expression,"P+I 8 h, NC 1.167, NC_P+I 8.247",3.736 FPKM
same,IRF8 expression,"P+I 8 h, NC 1.168, NC_P+I 14.813",1.914 FPKM
same,SCHIP1 expression,"P+I 8 h, NC 1.25, NC_P+I 3.933",1.333 FPKM
same,FOSL2 expression,"P+I 8 h, NC 1.294, NC_P+I 7.508",2.362 FPKM
same,TNFSF9 expression,"P+I 8 h, NC 1.393, NC_P+I 7.107",2.651 FPKM
same,IQCJ-SCHIP1 expression,"P+I 8 h, NC 1.402, NC_P+I 4.253",1.234 FPKM
same,STAT5A expression,"P+I 8 h, NC 1.417, NC_P+I 9.105",3.055 FPKM
same,TDRD9 expression,"P+I 8 h, NC 1.428, NC_P+I 25.902",1.888 FPKM
same,LOC729603 expression,"P+I 8 h, NC 1.468, NC_P+I 5.071",3.329 FPKM
